Data on one molecule can be found in article PMC4826176, “Identification of H7 as a novel peroxiredoxin I inhibitor to induce differentiation of leukemia cells” (Oncotarget, 2015).

By IC50 is commonly meant the concentration needed to halve the response being measured.

In test [1] the target is T1, Prdx I (recombinant human peroxiredoxin I) (Homo sapiens, UniProt Q06830).
T1 construct: gene PRDX1; full-length, N-terminal His6 tag (pET28a), expressed in E. coli BL21, purified
T1 sequence (Q06830 2-199): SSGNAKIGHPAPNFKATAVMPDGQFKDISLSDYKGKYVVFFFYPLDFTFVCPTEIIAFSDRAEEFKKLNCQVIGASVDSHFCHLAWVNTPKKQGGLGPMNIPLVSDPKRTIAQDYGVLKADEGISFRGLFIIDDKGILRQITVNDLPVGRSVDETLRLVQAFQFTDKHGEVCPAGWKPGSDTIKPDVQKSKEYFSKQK
Kind of test: surface plasmon resonance (Biacore T200), single-cycle kinetics. The test is classed as binding. The note with it: read-out: dissociation constant. The source says: surface plasmon resonance (Biacore T200), single-cycle kinetics on Prdx I (recombinant human peroxiredoxin I) | H7 rapidly associated and disassociated from the immobilized Prdx I at a dissociation constant of […]

In test [2] the target is T2, Prdx I (endogenous, NB4 cell lysate) (Homo sapiens, UniProt Q06830).
T2 construct: gene PRDX1; endogenous untagged protein in NB4 cell lysate, detected by Western blot
T2 sequence (Q06830 2-199): T1 sequence (Q06830 2-199)
As to the kind of experiment: cellular thermal shift assay (CETSA) in lysate, Western blot. The note with it: NB4 lysate in PBS, heated 3 min at different temperatures (75.9°C for dose dependence). It is filed as biochemical. For orientation: A western blot detects proteins with antibodies after separation by electrophoresis.

In test [3] the target is T1, Prdx I (recombinant human peroxiredoxin I). As to the kind of experiment: peroxidase activity, Trx-Trx reductase-NADPH-coupled spectrophotometric assay. It is filed as biochemical.

With `CCc1ccc(S(=O)(=O)N=C2C=CC(=O)c3ccccc32)cc1` [H7], in test [1], the Kd worked out at 1.57 µM. Moreover, the “cellular thermal shift assay (CETSA) in lysate, Western blot” value in test [2] is recorded as “addition of H7 but not DMSO into the cell lysates increased the stability of Prdx I”. Also, the half-inhibitory concentration (IC50) in test [3] was determined as 7.85 µM.
